This note sets out measurements from US12162867B2, “Inhibitors of RNA helicase DHX9 and uses thereof” (ACCENT THERAPEUTICS, INC., priority 2022, dated 2024).

Structures are written as SMILES. A value given as a limit tells only on which side of the number the result lay.

The first experiment has as its system circBRIP1 in HCT116 cells. The experiment in a line: DHX9 circBRIP1 cellular target engagement SYBR Green assay (qPCR). The class given is cell-based. The conditions noted are these: Homo sapiens, HCT-116, circBRIP1, HCT116 cells; SyBr assay (marked ^+); read-out: DHX9 Cellular Target Engagement EC50. For orientation: In qPCR the cycle at which signal appears reflects the starting amount.
On to `CS(=O)(=O)Nc1cc(Cl)cc(NC(=O)c2cccc(-c3cccc(C#N)c3)c2)c1` [Example 13], for which the EC50 came out at 7970 nM.

`CC(C)(C)OC(=O)N1CCC(n2cc(C(=O)Nc3cc(Cl)cc(NS(C)(=O)=O)c3)cn2)CC1` [Example 136]: the EC50 is 6410 nM.

For the molecule `CS(=O)(=O)Nc1cc(Cl)cc(NC(=O)c2cnn(-c3ncccc3OCc3ccc(F)cc3)c2)c1` [Example 69], the EC50 is 661 nM.

Turning to `CS(=O)(=O)Nc1cc(Br)cc(NC(=O)c2cnn(C3CCCCC3)c2)c1` [Example 48], the 50% effective concentration (EC50) came to 1410 nM.

Regarding `CS(=O)(=O)Nc1cc(Cl)cc(NC(=O)c2cc3ccc(Cl)cn3c2)c1` [Example 299], the EC50 was > 10000 nM.

For `COCc1sc(C(=O)Nc2cc(Cl)cc(NS(C)(=O)=O)c2)cc1-c1ccccn1` [Example 234], the EC50 stood at 1180 nM.

Turning to `Cc1cc(C(=O)Nc2cc(Cl)cc(NS(C)(=O)=O)c2)cn1-c1ccc(N2CCOC(C)(C)C2)cn1` [Example 272], the EC50 worked out at 31.1 nM.

With `Cc1sc(C(=O)Nc2cc(Cl)cc(NS(C)(=O)=O)c2)cc1-c1c(F)cccc1OCc1ccccc1` [Example 240], the EC50 came to 228 nM.

As to `CS(=O)(=O)Nc1cc(Cl)cc(NC(=O)c2cnn(-c3cc(N4CCOCC4)ccn3)c2)c1` [Example 91], the EC50 amounted to 382 nM.

`CS(=O)(=O)Nc1cc(Cl)cc(NC(=O)c2cnn([C@H]3CC[C@H]3O)c2)c1` (single isomer, unassigned) [Example 306b]: the EC50 is > 10000 nM.

Take `CS(=O)(=O)Nc1cc(Cl)cc(NC(=O)c2cnn(-c3ncccc3OCc3cccc(O)c3)c2)c1` [Example 179]: the EC50 was 997 nM.

With `CS(=O)(=O)Nc1cc(Cl)cc(NC(=O)c2cc3cnccc3s2)c1` [Example 288], the half-maximal effective concentration (EC50) was determined as 7800 nM.

Turning to `CS(=O)(=O)Nc1cc(Br)cc(NC(=O)c2cccc(-n3cccn3)c2)c1` [Example 118], the EC50 is 2930 nM.

With `CS(=O)(=O)Nc1cc(Br)cc(NC(=O)c2cnn(-c3ncccc3N)c2)c1` [Example 162, 1-(3-aminopyridin-2-yl)-N-(3-bromo-5-(methylsulfonamido)phenyl)-1H-pyrazole-4-carboxamide], the EC50 was 138 nM.

For `CS(=O)(=O)Nc1cc(Cl)cc(NC(=O)c2cc(-c3cccnc3)cs2)c1` [Example 116, N-(3-chloro-5-(methylsulfonamido)phenyl)-4-(pyridin-3-yl)thiophene-2-carboxamide], the EC50 is 734 nM.

Consider `CS(=O)(=O)Nc1cc(Cl)cc(NC(=O)c2cnn(-c3ncccc3C#N)c2)c1` [Example 46], for which the EC50 was 2250 nM.

In the case of `CS(=O)(=O)Nc1cc(Cl)cc(NC(=O)c2cnn(-c3ncccc3OCc3ccncc3)c2)c1` [Example 64], the EC50 was 5640 nM.

Take `CC(=O)N1CCN(c2cnc(-n3cc(C(=O)Nc4cc(Br)cc(NS(C)(=O)=O)c4)cn3)c(C)c2)CC1` [Example 87]: the EC50 was determined as 2460 nM.

Consider `CS(=O)(=O)Nc1cc(Cl)cc(NC(=O)c2c[nH]c(-c3ccccc3)n2)c1` [Example 6], for which the EC50 turned out to be 9340 nM.

Regarding `CS(=O)(=O)Nc1cc(Cl)cc(NC(=O)c2cc(CN)n(-c3ccccn3)c2)c1` [Example 181], the EC50 worked out at 2090 nM.

Staying with this experiment, now noted: Homo sapiens, HCT-116, circBRIP1, HCT116 cells; ^+ SyBr assay was used; read-out: DHX9 Cellular Target Engagement EC50.
With `CS(=O)(=O)Nc1cc(Cl)cc(NC(=O)c2cc(C(=O)N3CCN(CC(F)(F)F)CC3)n(-c3ccccn3)c2)c1` [Example 649], the EC50 is 9930 nM.

Consider `Cn1cc(C(=O)Nc2cc(Cl)cc(NS(C)(=O)=O)c2)cc1-c1ncc(F)cc1-c1cncc(F)c1` [Example 604, N-(3-chloro-5-methanesulfonamidophenyl)-5-{5,5′-difluoro-[3,3′-bipyridin]-2-yl}-1-methylpyrrole-3-carboxamide], for which the EC50 was found to be 160 nM.

As for `Cn1cc(C(=O)Nc2cc(Cl)cc(NS(C)(=O)=O)c2)cc1-c1ccc(C#N)cn1` [Example 570], the EC50 was found to be 224 nM.

As for `Cn1cc(C(=O)Nc2cc(Cl)cc(NS(C)(=O)=O)c2)cc1-c1ccc(Cl)cn1` [Example 576], the EC50 worked out at 128 nM.

As usually defined, the EC50 is the concentration at which the effect is half-maximal.
